Experimental data from article PMC12036557, “Functional Imaging of CYP3A4 at Multiple Dimensions Using an AI‐Driven High Performance Fluorogenic Substrate” (Small (Weinheim an Der Bergstrasse, Germany), 2025).

Biological target: T1, CYP3A4 (Homo sapiens, UniProt P08684)
Experiment: in vitro
Details: pH 7.4

T1 sequence (P08684 whole entry): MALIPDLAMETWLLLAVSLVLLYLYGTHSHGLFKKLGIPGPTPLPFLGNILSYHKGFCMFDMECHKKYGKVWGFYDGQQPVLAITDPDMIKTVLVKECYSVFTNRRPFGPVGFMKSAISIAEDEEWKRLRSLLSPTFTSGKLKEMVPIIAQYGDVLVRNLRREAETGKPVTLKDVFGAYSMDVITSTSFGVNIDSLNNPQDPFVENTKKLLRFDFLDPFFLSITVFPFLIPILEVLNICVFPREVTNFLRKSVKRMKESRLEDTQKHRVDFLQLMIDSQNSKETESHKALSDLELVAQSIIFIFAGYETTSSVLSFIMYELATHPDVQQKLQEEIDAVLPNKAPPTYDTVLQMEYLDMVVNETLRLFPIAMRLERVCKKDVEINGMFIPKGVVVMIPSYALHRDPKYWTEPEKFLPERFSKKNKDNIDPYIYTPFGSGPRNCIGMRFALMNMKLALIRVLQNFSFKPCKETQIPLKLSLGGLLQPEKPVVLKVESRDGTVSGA

Row | SMILES | activity at 30 min, 1 µM | activity at 1 µM
1 | O=c1c(-c2ccc(O)cc2)coc2cc(O)ccc12 [Daidzein] | 97.4% | –
2 | COc1ccc2c(c1)[nH]c1c(C)nccc12 [Harmine] | – | 101%
3 | C=CCc1ccc(O)c(-c2cc(CC=C)ccc2O)c1 [Magnolol] | – | 106%
4 | O=C1c2ccccc2C(=O)c2ccccc21 [Anthraquinone] | 94.3% | –
5 | O[C@H]1[C@H]2c3cc4c(cc3CN3CCC(=C[C@@H]1O)[C@H]23)OCO4 [Lycorine] | – | 92.1%

Biological target: T1, CYP3A4
Experiment: NFa-based screening and characterizing of hCYP3A4 inhibitors in HLMs
Details: human, human liver microsomes, pH 7.4, probe NFa (4-hydroxylation to 4-HNFa)

Row | activity at 30 min, 1 µM | SMILES
6 | 47.6% | COc1cc(O)ccc1/C=C/C(=O)c1ccc(O)cc1 [Echinatin]
7 | 70% | COc1cc(O)c(C(=O)/C=C/c2ccc3ncccc3c2)c(OC)c1OC [D12, (E)-1-(6-hydroxy-2,3,4-trimethoxyphenyl)-3-(quinolin-6-yl)prop-2-en-1-one]
8 | 103% | COc1cc(C[C@H]2C(=O)OC[C@@H]2Cc2ccc(OC)c(OC)c2)ccc1O [Arctigenin]
9 | 64.5% | O=C(/C=C/c1ccc2nccnc2c1)c1ccccc1O [D15, (E)-1-(2-hydroxyphenyl)-3-(quinoxalin-6-yl)prop-2-en-1-one]
10 | 95.7% | COc1ccccc1C(=O)/C=C/c1ccc2ccccc2c1 [D7, (E)-1-(2-methoxyphenyl)-3-(naphthalen-2-yl)prop-2-en-1-one]
11 | 85% | COc1cc(O)c(C(=O)/C=C/c2ccc3ccccc3c2)c(OC)c1OC [D9, (E)-1-(6-hydroxy-2,3,4-trimethoxyphenyl)-3-(naphthalen-2-yl)prop-2-en-1-one]
12 | 67.8% | COc1ccc(/C=C2\Cc3cc(OC)c(OC)cc3C2=O)cc1 [D6, (E)-5,6-Dimethoxy-2-(4-methoxybenzylidene)-2,3-dihydro-1H-inden-1-one]
13 | 88% | O=C(/C=C/c1ccc2ccccc2c1)c1ccccc1O [D8, (E)-1-(2-hydroxyphenyl)-3-(naphthalen-2-yl)prop-2-en-1-one]
14 | 72.3% | COc1cc2c(cc1OC)C(=O)/C(=C/c1cccc(C)c1)C2 [D5, (E)-5,6-dimethoxy-2-(3-methylbenzylidene)-2,3-dihydro-1H-inden-1-one]
15 | 100% | COc1cccc(O)c1C(=O)/C=C/c1ccc2nc(Cl)ccc2c1 [D16, (E)-3-(2-chloroquinolin-6-yl)-1-(2-hydroxy-6-methoxyphenyl)prop-2-en-1-one]
16 | 58.1% | COc1cc2c(cc1OC)C(=O)/C(=C/c1ccccc1C)C2 [D4, (E)-5,6-Dimethoxy-2-(2-methylbenzylidene)-2,3-dihydro-1H-inden-1-one]
17 | 83.6% | COc1ccc(C(=O)/C=C/c2ccc3nc(Cl)ccc3c2)c(O)c1 [D17, (E)-3-(2-chloroquinolin-6-yl)-1-(2-hydroxy-4-methoxyphenyl)prop-2-en-1-one]
18 | 59.9% | COc1cc(O)c(CC=C(C)C)c(O)c1C(=O)/C=C/c1ccc(O)cc1 [Xanthohumol]
19 | 63.9% | COc1cccc(C(=O)/C=C/c2ccc3nccnc3c2)c1 [D14, (E)-1-(3-methoxyphenyl)-3-(quinoxalin-6-yl)prop-2-en-1-one]
20 | 99.3% | COc1ccc(-c2coc3cc(O)ccc3c2=O)cc1O [Calycosin]
21 | 75.9% | COc1cc2c(cc1OC)C(=O)/C(=C/c1ccc(-c3ccccc3)cc1)C2 [D3, (E)-2-([1,1'-Biphenyl]-4-ylmethylene)-5,6-dimethoxy-2,3-dihydro-1H-inden-1-one]
22 | 54% | COc1cc(O)c(C(=O)/C=C/c2ccc3nccnc3c2)c(OC)c1 [D18, (E)-1-(2-hydroxy-4,6-dimethoxyphenyl)-3-(quinoxalin-6-yl)prop-2-en-1-one]

Second part, the compound before the results:

Row | SMILES | activity at 30 min, 1 µM
23 | O=c1c(O)c(-c2ccc(O)cc2)oc2cc(O)cc(O)c12 [Kaempferol] | 67.9%
24 | O=c1c(O)c(-c2ccccc2)oc2cc(O)cc(O)c12 [Galangin] | 94%
25 | Cc1c(O)c(C)c2c(c1O)C(=O)C[C@@H](c1ccc(O)cc1)O2 [Farrerol] | 73.5%
26 | O=C(O)c1ccc(O)c(O)c1 [Protocatechuic acid] | 109%
27 | O=C(CCc1ccc(O)cc1)c1c(O)cc(O)cc1O [Phloretin] | 97.3%
28 | COc1cc2c(cc1OC)[C@@H](Cc1ccc(Oc3cc(C[C@@H]4c5cc(OC)c(OC)cc5CCN4C)ccc3O)cc1)N(C)CC2 [Dauricine] | 92.8%
29 | CC(C)=CCc1c(O)ccc(C(=O)/C=C/c2ccc(O)cc2)c1O [Isobavachalcone] | 54.2%
30 | O=c1cc(-c2ccccc2)oc2c(O)c(O)cc(O)c12 [Norwogonin] | 85.3%
31 | COc1ccc(-c2cc(=O)c3c(O)cc(O)cc3o2)cc1 [Acacetin] | 49.9%
32 | COc1cc2c(cc1OC)C(=O)/C(=C/c1ccco1)C2 [D2, (E)-2-(Furan-2-ylmethylene)-5,6-dimethoxy-2,3-dihydro-1H-inden-1-one] | 102%
33 | CCc1ccc2c(c1)C(=O)c1ccccc1C2=O [2-Ethyl anthraquinone] | 79.8%
34 | COc1cc(O)cc2c1C(=O)C[C@@H](c1ccccc1)O2 [Alpinetin] | 95.7%
35 | CC(C)=CCc1cc2c(cc1O)O[C@H](c1ccc(O)cc1)CC2=O [Bavachin] | 71.6%
36 | COc1cc2c(=O)c(-c3ccc(O)cc3)coc2cc1O [Glycitein] | 104%
37 | O=C1c2ccccc2C(=O)c2c(O)cccc21 [1-Hydroxy anthraquinone] | 90.5%
38 | CC1(C)[C@@H](O)CC[C@]2(C)[C@H]3C(=O)C=C4[C@@H]5C[C@@](C)(C(=O)O)CC[C@]5(C)CC[C@@]4(C)[C@]3(C)CC[C@@H]12 [Glycyrrhetinic acid] | 66.9%
39 | COc1ccc(-c2coc3cc(O)ccc3c2=O)cc1 [Formononetin] | 98.9%
40 | COc1c(O)cc2occ(-c3ccc(O)cc3)c(=O)c2c1O [Tectorigenin] | 95.5%
41 | CC(C)=CCc1cc(-c2coc3cc(O)ccc3c2=O)ccc1O [Neobavaisoflavone] | 87.9%
42 | O=C1c2ccc(Br)cc2C(=O)c2ccc(Br)cc21 [2,6-Dibromoanthraquinone] | 85.5%
43 | O=C1c2ccc(O)cc2C(=O)c2ccc(O)cc21 [2,6-Dihydroxyanthraquinone] | 88.8%
44 | O=C1c2cccc(O)c2C(=O)c2cccc(O)c21 [1,5-Dihydroxyanthraquinone] | 99.8%
45 | O=c1c(O)c(-c2ccc(O)cc2)oc2c(O)c(O)cc(O)c12 [Herbacetin] | 91.1%
46 | COc1c(OC)c2occc2c2oc(=O)ccc12 [Pimpinellin] | 103%
47 | Cc1ccc2c(c1)C(=O)c1ccccc1C2=O [2-Methyl anthraquinone] | 83.6%
48 | O=C(O)c1ccc2c(c1)C(=O)c1ccccc1C2=O [Anthraquinone-2-carboxylic acid] | 98%
49 | C[C@H]1[C@H](C)CC[C@]2(C(=O)O)CC[C@]3(C)C(=CC[C@@H]4[C@@]5(C)CC[C@H](O)C(C)(C)[C@@H]5CC[C@]43C)[C@H]12 [Ursolic acid] | 99.3%
50 | Oc1ccc(/C=C/c2cc(O)cc(O)c2)cc1 [Resveratrol] | 72.1%
51 | O=C1c2cccc(Cl)c2C(=O)c2c(Cl)cccc21 [1,8-Dichloroanthraquinone] | 85.5%
52 | Nc1cccc2c1C(=O)c1ccccc1C2=O [1-Aminoanthraquinone] | 62.6%
